The IC50 is the concentration needed to halve the response being measured.

The results in this text go back to patent publication US20250346597A1, “CONDENSED HETEROCYCLIC COMPOUNDS AS INHIBITOR OF DIACYLGLYCEROL KINASES” (BEONE MEDICINES I GMBH, priority 2023, published 2025).

For one experiment, the target named is DGKζ (Homo sapiens (Human), UniProt Q13574). The experiment in a line: Biochemical DGK IC50 assay (ADP-Glo, lipid micelle substrate), DGKζ. Conditions: full length DGKζ 0.5 nM, ATP 140 μM, DAG 80 μM. Put shortly:
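ADP-Glo luminescence measured ADP made in a 1 h room-temperature reaction. The enzyme was Sf9-expressed, purified full-length human DGKζ, and the substrate was DAG/PS micelles. Assay buffer held 50 mM HEPES, 10 mM MgCl2, 0.01 mM CaCl2, 0.1 mM Na3VO4 and 0.01% BSA. IC50 was derived from activity inhibition over a compound concentration series.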
(In general: ADP-Glo turns the ADP formed in a reaction into a luminescent signal.)

Another experiment addresses DGKα (Homo sapiens (Human), UniProt P23743). In words: Biochemical DGK IC50 assay (ADP-Glo, lipid micelle substrate), DGKα. Further: full length DGKα 7.5 nM. Conditions: full length DGKα […], ATP 140 μM, DAG 80 μM. Put shortly: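 Luminescent ADP-Glo detection followed a 1 h room-temperature reaction of full-length DGKα on DAG/PS micelles, in HEPES buffer with 10 mM MgCl2, 0.01 mM CaCl2, 0.1 mM Na3VO4, BSA and Tween-20. IC50 derived from inhibition across increasing compound concentrations.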

Sequence of DGKα (P23743 whole entry): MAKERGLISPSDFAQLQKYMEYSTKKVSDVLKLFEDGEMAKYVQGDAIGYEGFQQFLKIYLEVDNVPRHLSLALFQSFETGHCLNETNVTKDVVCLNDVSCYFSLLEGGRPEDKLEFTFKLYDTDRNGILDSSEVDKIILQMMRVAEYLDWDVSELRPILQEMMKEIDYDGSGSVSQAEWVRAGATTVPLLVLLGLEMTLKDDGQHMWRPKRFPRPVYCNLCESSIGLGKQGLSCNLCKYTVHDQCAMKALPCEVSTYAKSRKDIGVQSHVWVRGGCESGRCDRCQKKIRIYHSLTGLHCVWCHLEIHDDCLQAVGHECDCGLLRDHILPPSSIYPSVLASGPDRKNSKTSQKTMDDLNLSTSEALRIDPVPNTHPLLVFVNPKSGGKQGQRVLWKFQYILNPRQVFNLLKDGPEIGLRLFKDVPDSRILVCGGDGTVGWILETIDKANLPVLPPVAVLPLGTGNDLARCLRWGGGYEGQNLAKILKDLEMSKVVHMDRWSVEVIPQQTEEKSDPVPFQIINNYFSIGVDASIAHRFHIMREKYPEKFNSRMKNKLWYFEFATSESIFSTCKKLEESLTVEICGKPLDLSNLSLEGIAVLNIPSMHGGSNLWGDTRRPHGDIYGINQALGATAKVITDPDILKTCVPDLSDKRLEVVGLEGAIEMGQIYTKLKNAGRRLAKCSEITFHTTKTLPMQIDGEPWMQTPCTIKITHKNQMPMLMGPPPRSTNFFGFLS
Sequence of DGKζ (Q13574 other isoform, or with tags, fused parts or gaps): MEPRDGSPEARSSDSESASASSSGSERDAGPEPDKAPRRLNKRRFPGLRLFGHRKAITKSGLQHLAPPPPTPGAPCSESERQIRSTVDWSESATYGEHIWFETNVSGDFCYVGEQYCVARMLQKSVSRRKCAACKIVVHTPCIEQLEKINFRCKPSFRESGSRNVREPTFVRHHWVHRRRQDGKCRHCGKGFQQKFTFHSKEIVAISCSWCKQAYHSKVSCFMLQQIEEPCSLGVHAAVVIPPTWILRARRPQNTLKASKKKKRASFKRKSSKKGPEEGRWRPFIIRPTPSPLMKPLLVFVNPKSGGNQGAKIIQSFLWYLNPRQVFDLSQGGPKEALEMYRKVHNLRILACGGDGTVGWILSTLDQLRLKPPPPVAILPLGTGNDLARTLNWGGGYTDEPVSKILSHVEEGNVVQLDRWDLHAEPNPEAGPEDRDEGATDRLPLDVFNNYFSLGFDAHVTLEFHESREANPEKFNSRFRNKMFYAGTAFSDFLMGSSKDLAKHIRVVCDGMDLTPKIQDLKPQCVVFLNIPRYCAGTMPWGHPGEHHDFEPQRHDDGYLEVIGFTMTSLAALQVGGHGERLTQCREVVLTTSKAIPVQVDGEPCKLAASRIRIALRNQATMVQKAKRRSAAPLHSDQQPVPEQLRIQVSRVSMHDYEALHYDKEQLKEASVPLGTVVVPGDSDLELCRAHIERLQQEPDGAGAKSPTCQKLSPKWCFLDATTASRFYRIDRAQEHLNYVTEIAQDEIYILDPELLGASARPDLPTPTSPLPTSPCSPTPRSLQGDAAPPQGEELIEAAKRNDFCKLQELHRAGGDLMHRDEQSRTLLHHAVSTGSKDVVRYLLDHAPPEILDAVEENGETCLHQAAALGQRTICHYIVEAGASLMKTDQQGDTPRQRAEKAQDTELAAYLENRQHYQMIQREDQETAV

For `CC[C@H]1CN(C(C)c2ccc3cc(C(F)F)sc3n2)[C@H](CC)CN1c1cc(=O)n(C)c2cn(CC#N)nc12` (single isomer, unassigned) [Compound A144a], the 50% inhibitory concentration (IC50) against DGKζ turned out to be 1300 nM; against DGKα, 270 nM.

Regarding `CC[C@H]1CN(C(C)c2ccc3cc(C(F)F)sc3n2)[C@H](CC)CN1c1cc(=O)n(C)c2cn(CC#N)nc12` (single isomer, unassigned) [Compound A144b], the IC50 on DGKζ is 135 nM; at DGKα it was 18 nM.

As for `CC[C@H]1CN(C(C)c2ccc3nc(COC)sc3c2)[C@H](CC)CN1c1cc(=O)n(C)c2cn(CC#N)nc12` (single isomer, unassigned) [Compound A145a], the results for the IC50 at DGKζ and against DGKα were 47 nM and 545 nM, respectively.

For the molecule `CC[C@H]1CN(C(C)c2ccc3nc(COC)sc3c2)[C@H](CC)CN1c1cc(=O)n(C)c2cn(CC#N)nc12` (single isomer, unassigned) [Compound A145b], the values for the IC50 on DGKζ and on DGKα were 939 nM and 3350 nM, respectively.

As for `CC[C@H]1CN(C(C)c2ccc3nc(OC4CC4)sc3n2)[C@H](CC)CN1c1cc(=O)n(C)c2cn(CC#N)nc12` (single isomer, unassigned) [Compound A146a], the IC50 was determined as 1750 nM at DGKζ and 2400 nM on DGKα.

`CC[C@H]1CN(C(C)c2ccc3nc(OC4CC4)sc3n2)[C@H](CC)CN1c1cc(=O)n(C)c2cn(CC#N)nc12` (single isomer, unassigned) [Compound A146b]: the IC50 worked out at 104 nM on DGKζ and 205 nM at DGKα.

As for `CC[C@H]1CN(C(C)c2ccc3nc(OCCF)sc3n2)[C@H](CC)CN1c1cc(=O)n(C)c2cn(CC#N)nc12` (single isomer, unassigned) [Compound A147a], the results for the IC50 against DGKζ and against DGKα were 152 nM and 180 nM, respectively.

Consider `CC[C@H]1CN(C(C)c2ccc3nc(OCCF)sc3n2)[C@H](CC)CN1c1cc(=O)n(C)c2cn(CC#N)nc12` (single isomer, unassigned) [Compound A147b], for which the IC50 is 1510 nM at DGKζ and 1570 nM against DGKα.

Consider `CC[C@H]1CN(C(C)c2ccc3cc(C(F)F)sc3n2)[C@H](CC)CN1c1nc(=O)n(C)c2cn(CC#N)nc12` (single isomer, unassigned) [Compound A148a], for which the IC50 against DGKζ came out at 2310 nM; at DGKα, 1280 nM.

For the molecule `CC[C@H]1CN(C(C)c2ccc3cc(C(F)F)sc3n2)[C@H](CC)CN1c1nc(=O)n(C)c2cn(CC#N)nc12` (single isomer, unassigned) [Compound A148b], the half-maximal inhibitory concentration (IC50) at DGKζ turned out to be 45 nM; at DGKα, 36 nM.

As to `CC[C@H]1CN(C(C)c2ccc3nc(C)cn3n2)[C@H](CC)CN1c1cc(=O)n(C)c2cn(CC#N)nc12` (single isomer, unassigned) [Compound A149a], the IC50 at DGKζ worked out at 2720 nM; at DGKα, 1110 nM.

Consider `CC[C@H]1CN(C(C)c2ccc3nc(C)cn3n2)[C@H](CC)CN1c1cc(=O)n(C)c2cn(CC#N)nc12` (single isomer, unassigned) [Compound A149b], for which the IC50 against DGKζ came out at 93 nM; on DGKα it was 43 nM.

Turning to `CC[C@H]1CN(C(C)c2ccc3nc(C)cn3n2)[C@H](CC)CN1c1nc(=O)n(C)c2cn(CC#N)nc12` (single isomer, unassigned) [Compound A150a], the results for the IC50 against DGKζ and against DGKα were over 10000 nM and 7140 nM, respectively.

In the case of `CC[C@H]1CN(C(C)c2ccc3nc(C)cn3n2)[C@H](CC)CN1c1nc(=O)n(C)c2cn(CC#N)nc12` (single isomer, unassigned) [Compound A150b], the IC50 at DGKζ was 267 nM; against DGKα, 124 nM.

Take `CC[C@H]1CN(C(C)c2ccn3ncc(C)c3n2)[C@H](CC)CN1c1cc(=O)n(C)c2cn(CC#N)nc12` (single isomer, unassigned) [Compound A151a]: the IC50 at DGKζ amounted to 4610 nM; on DGKα, 7320 nM.

Turning to `CC[C@H]1CN(C(C)c2ccn3ncc(C)c3n2)[C@H](CC)CN1c1cc(=O)n(C)c2cn(CC#N)nc12` (single isomer, unassigned) [Compound A151b], the values for the IC50 at DGKζ and at DGKα were 7.5 nM and 156 nM, respectively.

Consider `CC[C@H]1CN(C(C)c2ccn3nc(C)cc3n2)[C@H](CC)CN1c1cc(=O)n(C)c2cn(CC#N)nc12` (single isomer, unassigned) [Compound A152a], for which the figures for the IC50 on DGKζ and against DGKα were 3090 nM and 1910 nM, respectively.

Consider `CC[C@H]1CN(C(C)c2ccn3nc(C)cc3n2)[C@H](CC)CN1c1cc(=O)n(C)c2cn(CC#N)nc12` (single isomer, unassigned) [Compound A152b], for which the results for the IC50 against DGKζ and against DGKα were 65.5 nM and 45 nM, respectively.

Regarding `CCc1cn2nc(C(C)N3C[C@H](CC)N(c4cc(=O)n(C)c5cn(CC#N)nc45)C[C@H]3CC)ccc2n1` (single isomer, unassigned) [Compound A153a], the IC50 on DGKζ was over 10000 nM; against DGKα it was 2720 nM.

In the case of `CCc1cn2nc(C(C)N3C[C@H](CC)N(c4cc(=O)n(C)c5cn(CC#N)nc45)C[C@H]3CC)ccc2n1` (single isomer, unassigned) [Compound A153b], the IC50 came out at 195 nM on DGKζ and 72 nM on DGKα.

For `CC[C@H]1CN(C(C)c2ccn3nccc3n2)[C@H](CC)CN1c1cc(=O)n(C)c2cn(CC#N)nc12` (single isomer, unassigned) [Compound A154a], the IC50 at DGKζ is over 10000 nM; against DGKα it was 505 nM.

`CC[C@H]1CN(C(C)c2ccn3nccc3n2)[C@H](CC)CN1c1cc(=O)n(C)c2cn(CC#N)nc12` (single isomer, unassigned) [Compound A154b]: the IC50 stood at 55 nM against DGKζ and 12 nM at DGKα.

`Cc1cc2nc(C(C)N3C[C@H](C)N(c4cc(=O)n(C)c5cn(CC#N)nc45)C[C@H]3C)ccc2s1` (single isomer, unassigned) [Compound A155a]: the IC50 at DGKζ was 20 nM; against DGKα, 1140 nM.

For the molecule `Cc1cc2nc(C(C)N3C[C@H](C)N(c4cc(=O)n(C)c5cn(CC#N)nc45)C[C@H]3C)ccc2s1` (single isomer, unassigned) [Compound A155b], the figures for the half-inhibitory concentration (IC50) against DGKζ and on DGKα were 1970 nM and 139 nM, respectively.

Turning to `CC[C@H]1CN(C(C)c2ccn3nc(C)c(C)c3n2)[C@H](CC)CN1c1cc(=O)n(C)c2cn(CC#N)nc12` (single isomer, unassigned) [Compound A156a], the IC50 was 5130 nM against DGKζ and over 10000 nM on DGKα.

On to `CC[C@H]1CN(C(C)c2ccn3nc(C)c(C)c3n2)[C@H](CC)CN1c1cc(=O)n(C)c2cn(CC#N)nc12` (single isomer, unassigned) [Compound A156b], for which the figures for the IC50 against DGKζ and against DGKα were 23 nM and 310 nM, respectively.

In the case of `CC[C@H]1CN(C(C)c2ccn3nc(C)cc3n2)[C@H](CC)CN1c1nc(=O)n(C)c2cn(CC#N)nc12` (single isomer, unassigned) [Compound A157a], the half-maximal inhibitory concentration (IC50) against DGKζ and against DGKα was over 10000 nM throughout.

Regarding `CC[C@H]1CN(C(C)c2ccn3nc(C)cc3n2)[C@H](CC)CN1c1nc(=O)n(C)c2cn(CC#N)nc12` (single isomer, unassigned) [Compound A157b], the results for the IC50 at DGKζ and on DGKα were 166 nM and 183 nM, respectively.

Consider `CC[C@H]1CN(C(C)c2ccn3nc(F)cc3n2)[C@H](CC)CN1c1cc(=O)n(C)c2cn(CC#N)nc12` (single isomer, unassigned) [Compound A158a], for which the IC50 at DGKζ was over 10000 nM; against DGKα, 330 nM.

In the case of `CC[C@H]1CN(C(C)c2ccn3nc(F)cc3n2)[C@H](CC)CN1c1cc(=O)n(C)c2cn(CC#N)nc12` (single isomer, unassigned) [Compound A158b], the IC50 at DGKζ amounted to 91 nM; on DGKα, 21 nM.

Take `CC[C@H]1CN(C(C)c2ccn3nccc3c2)[C@H](CC)CN1c1nc(=O)n(C)c2cn(CC#N)nc12` (single isomer, unassigned) [Compound A159a]: the values for the IC50 on DGKζ and against DGKα were 56 nM and 38 nM, respectively.

As to `CC[C@H]1CN(C(C)c2ccn3nccc3c2)[C@H](CC)CN1c1nc(=O)n(C)c2cn(CC#N)nc12` (single isomer, unassigned) [Compound A159b], the IC50 at DGKζ stood at 1120 nM; against DGKα, 40 nM.

For `CC[C@H]1CN(C(C)c2ccn3nc(C)c(F)c3n2)[C@H](CC)CN1c1cc(=O)n(C)c2cn(CC#N)nc12` (single isomer, unassigned) [Compound A160a], the results for the IC50 on DGKζ and at DGKα were 4120 nM and 5970 nM, respectively.

As to `CC[C@H]1CN(C(C)c2ccn3nc(C)c(F)c3n2)[C@H](CC)CN1c1cc(=O)n(C)c2cn(CC#N)nc12` (single isomer, unassigned) [Compound A160b], the IC50 against DGKζ came out at 15 nM; against DGKα, 47 nM.

For `CC[C@H]1CN(C(C)c2ccn3ncc(F)c3n2)[C@H](CC)CN1c1cc(=O)n(C)c2cn(CC#N)nc12` (single isomer, unassigned) [Compound A161a], the IC50 on DGKζ and on DGKα was over 10000 nM in each case.

As to `CC[C@H]1CN(C(C)c2ccn3ncc(F)c3n2)[C@H](CC)CN1c1cc(=O)n(C)c2cn(CC#N)nc12` (single isomer, unassigned) [Compound A161b], the IC50 on DGKζ amounted to 18 nM; against DGKα it was 32 nM.

On to `CC[C@H]1CN(C(C)c2ccn3nc(C)cc3c2)[C@H](CC)CN1c1cc(=O)n(C)c2cn(CC#N)nc12` (single isomer, unassigned) [Compound A162a], for which the values for the IC50 on DGKζ and against DGKα were 51 nM and 104 nM, respectively.

Turning to `CC[C@H]1CN(C(C)c2ccn3nc(C)cc3c2)[C@H](CC)CN1c1cc(=O)n(C)c2cn(CC#N)nc12` (single isomer, unassigned) [Compound A162b], the half-inhibitory concentration (IC50) against DGKζ is 3270 nM; against DGKα, 2430 nM.
